Values quoted from earlier work in patent publication US12533334B2, “Compositions and methods for modulating equine fatty acid profiles” (KENTUCKY EQUINE RESEARCH, INC., priority 2021, dated 2026).

System: aspirin-induced gastric hemorrhage
Settings: rats subjected to aspirin-induced gastric hemorrhage, dietary supplementation

Q: Which Gastric hemorrhage does the source give for `CCCCC/C=C\C/C=C\CCCCCCCC(=O)O` [LA, linoleic acid] here?
A: 3 of 8

Q: With `CCCCC/C=C\C/C=C\C/C=C\CCCCC(=O)O` [GLA, gamma linolenic acid] as the molecule, how does the Gastric hemorrhage read?
A: no gastric hemorrhage
